Data taken from patent US11361527B2, “Automated robotic microscopy systems” (The J. David Gladstone Institutes, a testamentary trust …, priority 2012, dated 2022).

Tested on: primary neurons transfected with TDP43 M337V
Test: Automated neurite quantification in primary neurons transfected with TDP43 M337V (ALS disease model), robotic microscope
Format: cell-based
Conditions: fluphenazine 0.1 μM vs vehicle, images every 24 hours, FIG. 24
Experimental: Primary neurons were transfected with GFP as a control or TDP43 M337V. The disease model neurons were treated with fluphenazine (0.1 μM) or vehicle to determine whether autophagy could rescue TDP43 M337V mediated loss of neurites. Images were collected every 24 hours with the robotic microscope and neurites were quantified using automated analysis as described herein.
Further, counting the number of neurites in neuronal cultures can be an early and sensitive measure of cell health. Neurite retraction often precedes neuron death when cells are coping with neurodegenerative disease causing proteins. One way to detect neurites with low computational complexity is to quantify the total area of neurites in an image. A line detector may be used to identify pixels in an image that have local structures that represent a line. The determination is based on the second order pixel data (Hessian matrix), which is a measure of local intensity curvature. In certain aspects, such an approach uses the following parameters:
The output of the line detector is a binary image with pixels that are part of lines having a value of 1 and all other pixels having a value of 0. The pixels of this binary image are then summed to quantify the total area of neurites. […] Images were collected every 24 hours with the robotic microscope and neurites were quantified using automated analysis as described above.

For `OCCN1CCN(CCCN2c3ccccc3Sc3ccc(C(F)(F)F)cc32)CC1` [fluphenazine], the “neurite degeneration induced by TDP43 M337V (loss of neurites, automated neurite quantification)” value was “mitigates neurite degeneration”.
